Source: PubChem BioAssay (NCI)
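Step 1: Grow cells in 96-well plates. Step 2: Expose to compound for 48 hours at 5 concentrations. Step 3: Interpolate endpoints linearly; if unreached, use highest concentration. Definition used: TGI = concentration required for complete inhibition of growth.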

How the values were obtained:
Test in all cases: growth of human tumour cells (NCI), 48 h
SK-MEL-2 melanoma = system: SK-MEL-2 melanoma
RXF 393 renal = system: RXF 393 renal
DMS 114 small cell lung = system: DMS 114 small cell lung
NCI-H460 lung = system: NCI-H460 lung
ACHN renal = system: ACHN renal
A549 NSCLC = system: A549 NSCLC
K-562 leukemia = system: K-562 leukemia
SF-295 CNS = system: SF-295 CNS
SK-OV-3 ovarian = system: SK-OV-3 ovarian
CAKI-1 renal = system: CAKI-1 renal
HCC-2998 colon = system: HCC-2998 colon
NCI-H23 lung = system: NCI-H23 lung
HOP-92 NSCLC = system: HOP-92 NSCLC
HT29 colon = system: HT29 colon
SK-MEL-28 melanoma = system: SK-MEL-28 melanoma
SF-539 CNS = system: SF-539 CNS
HCT-116 colon = system: HCT-116 colon
MALME-3M melanoma = system: MALME-3M melanoma
UACC-257 melanoma = system: UACC-257 melanoma
NCI-H226 lung = system: NCI-H226 lung
COLO 205 colon = system: COLO 205 colon
OVCAR-8 ovarian = system: OVCAR-8 ovarian
CCRF-CEM leukemia = system: CCRF-CEM leukemia
SF-268 CNS = system: SF-268 CNS
LXFL 529 NSCLC = system: LXFL 529 NSCLC
DMS 273 small cell lung = system: DMS 273 small cell lung
SN12C renal = system: SN12C renal
HCT-15 colon = system: HCT-15 colon
OVCAR-3 ovarian = system: OVCAR-3 ovarian
IGROV1 ovarian = system: IGROV1 ovarian
DLD-1 colon = system: DLD-1 colon
SW-620 colon = system: SW-620 colon
HL-60(TB) leukemia = system: HL-60(TB) leukemia
SNB-19 CNS = system: SNB-19 CNS
EKVX NSCLC = system: EKVX NSCLC
UACC-62 melanoma = system: UACC-62 melanoma
LOX IMVI melanoma = system: LOX IMVI melanoma
MOLT-4 leukemia = system: MOLT-4 leukemia
SK-MEL-5 melanoma = system: SK-MEL-5 melanoma
786-0 renal = system: 786-0 renal
RPMI-8226 leukemia = system: RPMI-8226 leukemia
KM12 colon = system: KM12 colon
TK-10 renal = system: TK-10 renal
U251 CNS = system: U251 CNS
SR leukemia = system: SR leukemia
HOP-62 NSCLC = system: HOP-62 NSCLC
KM20L2 colon = system: KM20L2 colon
RXF-631 renal = system: RXF-631 renal
NCI-H522 lung = system: NCI-H522 lung
HOP-18 NSCLC = system: HOP-18 NSCLC
SNB-75 CNS = system: SNB-75 CNS
XF 498 CNS = system: XF 498 CNS
OVCAR-4 ovarian = system: OVCAR-4 ovarian
OVCAR-5 ovarian = system: OVCAR-5 ovarian
UO-31 renal = system: UO-31 renal
M19-MEL melanoma = system: M19-MEL melanoma
M14 melanoma = system: M14 melanoma
SNB-78 CNS = system: SNB-78 CNS
A498 renal = system: A498 renal

`Cn1c2c(c3ccccc31)C1C(=O)N(c3ccccc3)C(=O)C1CC2` (configuration not stated) was tested, and the TGI (SK-MEL-2 melanoma) was greater than 303 µM, the TGI (RXF 393 renal) was greater than 303 µM and the TGI (DMS 114 small cell lung) was greater than 303 µM. It also gave a TGI (NCI-H460 lung) greater than 303 µM, a TGI (ACHN renal) greater than 303 µM and a TGI (A549 NSCLC) greater than 303 µM. For the same compound, the TGI (K-562 leukemia) was greater than 303 µM, the TGI (SF-295 CNS) was greater than 303 µM and the TGI (SK-OV-3 ovarian) was greater than 303 µM. For the same compound, the TGI (CAKI-1 renal) was greater than 303 µM, the TGI (HCC-2998 colon) was greater than 303 µM and the TGI (NCI-H23 lung) was greater than 303 µM. For the same compound, the TGI (HOP-92 NSCLC) was greater than 303 µM, the TGI (HT29 colon) was greater than 303 µM and the TGI (SK-MEL-28 melanoma) was greater than 303 µM. For the same compound, the TGI (SF-539 CNS) was greater than 303 µM, the TGI (HCT-116 colon) was greater than 303 µM and the TGI (MALME-3M melanoma) was greater than 303 µM. The TGI (UACC-257 melanoma) was greater than 303 µM, the TGI (NCI-H226 lung) was greater than 303 µM and the TGI (COLO 205 colon) was greater than 303 µM. It also gave a TGI (OVCAR-8 ovarian) greater than 303 µM, a TGI (CCRF-CEM leukemia) greater than 303 µM and a TGI (SF-268 CNS) greater than 303 µM. It also gave a TGI (LXFL 529 NSCLC) greater than 303 µM, a TGI (DMS 273 small cell lung) greater than 303 µM and a TGI (SN12C renal) greater than 303 µM. The TGI (HCT-15 colon) was greater than 303 µM, the TGI (OVCAR-3 ovarian) was greater than 303 µM and the TGI (IGROV1 ovarian) was greater than 303 µM. It also gave a TGI (DLD-1 colon) greater than 303 µM, a TGI (SW-620 colon) greater than 303 µM and a TGI (HL-60(TB) leukemia) greater than 303 µM. The TGI (SNB-19 CNS) was greater than 303 µM, the TGI (EKVX NSCLC) was greater than 303 µM and the TGI (UACC-62 melanoma) was greater than 303 µM. The TGI (LOX IMVI melanoma) was greater than 303 µM, the TGI (MOLT-4 leukemia) was greater than 303 µM and the TGI (SK-MEL-5 melanoma) was greater than 303 µM. It also gave a TGI (786-0 renal) greater than 303 µM, a TGI (RPMI-8226 leukemia) greater than 303 µM and a TGI (KM12 colon) greater than 303 µM. The TGI (TK-10 renal) was greater than 303 µM, the TGI (U251 CNS) was greater than 303 µM and the TGI (SR leukemia) was greater than 303 µM. The TGI (HOP-62 NSCLC) was greater than 303 µM, the TGI (KM20L2 colon) was greater than 303 µM and the TGI (RXF-631 renal) was greater than 303 µM. For the same compound, the TGI (NCI-H522 lung) was greater than 303 µM.
`Cn1c(=O)c2c3ccccc3c(C(=O)c3ccccc3)n2c2ccccc21` was tested, and the TGI (SK-MEL-2 melanoma) was greater than 100 µM, the TGI (HOP-18 NSCLC) was greater than 100 µM and the TGI (RXF 393 renal) was greater than 100 µM. The TGI (DMS 114 small cell lung) was greater than 100 µM, the TGI (NCI-H460 lung) was greater than 100 µM and the TGI (ACHN renal) was greater than 100 µM. For the same compound, the TGI (A549 NSCLC) was greater than 100 µM, the TGI (SNB-75 CNS) was 15 µM and the TGI (K-562 leukemia) was greater than 100 µM. It also gave a TGI (SF-295 CNS) greater than 100 µM, a TGI (SK-OV-3 ovarian) greater than 100 µM and a TGI (CAKI-1 renal) greater than 100 µM. It also gave a TGI (HCC-2998 colon) greater than 100 µM, a TGI (NCI-H23 lung) greater than 100 µM and a TGI (XF 498 CNS) greater than 100 µM. For the same compound, the TGI (HOP-92 NSCLC) was greater than 84.2 µM, the TGI (HT29 colon) was greater than 100 µM and the TGI (OVCAR-4 ovarian) was greater than 100 µM. The TGI (SK-MEL-28 melanoma) was greater than 100 µM, the TGI (OVCAR-5 ovarian) was greater than 100 µM and the TGI (SF-539 CNS) was greater than 100 µM. The TGI (HCT-116 colon) was greater than 100 µM, the TGI (MALME-3M melanoma) was greater than 100 µM and the TGI (UACC-257 melanoma) was greater than 100 µM. The TGI (NCI-H226 lung) was greater than 100 µM, the TGI (COLO 205 colon) was greater than 100 µM and the TGI (OVCAR-8 ovarian) was greater than 100 µM. It also gave a TGI (CCRF-CEM leukemia) greater than 31.6 µM, a TGI (SF-268 CNS) greater than 100 µM and a TGI (LXFL 529 NSCLC) greater than 100 µM. For the same compound, the TGI (DMS 273 small cell lung) was greater than 100 µM, the TGI (SN12C renal) was greater than 100 µM and the TGI (HCT-15 colon) was greater than 100 µM. For the same compound, the TGI (OVCAR-3 ovarian) was greater than 100 µM, the TGI (IGROV1 ovarian) was greater than 100 µM and the TGI (DLD-1 colon) was greater than 100 µM. The TGI (SW-620 colon) was greater than 100 µM, the TGI (UO-31 renal) was greater than 100 µM and the TGI (HL-60(TB) leukemia) was greater than 100 µM. It also gave a TGI (SNB-19 CNS) greater than 100 µM, a TGI (EKVX NSCLC) greater than 100 µM and a TGI (UACC-62 melanoma) greater than 30.1 µM. The TGI (LOX IMVI melanoma) was greater than 100 µM, the TGI (MOLT-4 leukemia) was greater than 100 µM and the TGI (SK-MEL-5 melanoma) was greater than 100 µM. For the same compound, the TGI (786-0 renal) was greater than 100 µM, the TGI (RPMI-8226 leukemia) was greater than 100 µM and the TGI (KM12 colon) was greater than 100 µM. The TGI (TK-10 renal) was greater than 96.6 µM, the TGI (M19-MEL melanoma) was greater than 100 µM and the TGI (U251 CNS) was greater than 100 µM. For the same compound, the TGI (SR leukemia) was greater than 100 µM, the TGI (M14 melanoma) was greater than 100 µM and the TGI (HOP-62 NSCLC) was greater than 100 µM. The TGI (KM20L2 colon) was greater than 100 µM, the TGI (SNB-78 CNS) was greater than 100 µM and the TGI (NCI-H522 lung) was greater than 100 µM. It also gave a TGI (A498 renal) greater than 100 µM.
